In US9447136B2, “Semisynthetic derivatives of Nystatin A1” (BLIRT S.A., priority 2012, dated 2016):
Like-named read-outs stand apart in the source and are kept apart here.

Assays:
Candida krusei DSM 6128 = experiment: Antifungal activity in vitro, serial dilution in RPMI 1640; format: cell-based; details: Table 2A; RPMI 1640, pH 7.0
Description: (§1) For the determination of antifungal activity in vitro we used method of serial dilution in buffered medium RPMI 1640, pH 7.0, in a 96-wells microplates, according to the standard procedure (National Committee for Clinical Laboratory Standards. Reference method for broth dilution antifungal susceptibility testing of yeast, approved standard, 2nd ed. M27-A2 vol. 22 Wayne, Pa., 2002). The optical density of cells suspension was measured using a microplates reader (Victor^3, Perkin-Elmer) at the wavelength λ=531 nm (A531). On the basis of obtained results the diagrams of relation between A531 values and concentration of examined compound were made. From these graphs, the IC50 values were read, which were the interpolated concentrations of a tested compound, at which the A531 value was exactly 50% of the A531 value for the control sample. Moreover, MIC values, that are the lowest concentration of tested compound at which the A531 value were at most 20% of the A531 value measured for the control sample.

[1] = system: Candida albicans ATCC 10231; experiment: as above; format: cell-based; details: Table 2A, RPMI 1640, pH 7.0; for Antifungal activity Candida albicans ATCC 10231 IC50: A531 50% of control; for Antifungal activity Candida albicans ATCC 10231 MIC: A531 at most 20% of control
Description: as §1

[2] = system: Candida glabrata DSM 11226; experiment: as above; format: cell-based; details: Table 2A; RPMI 1640, pH 7.0
Description: as §1

[3] = system: Candida lusitaniae DSM 70102; experiment: as above; format: cell-based; details: Table 2A; RPMI 1640, pH 7.0
Description: as §1

[4] = system: Saccharomyces cerevisiae ATCC 9763; experiment: as above; format: cell-based; details: Table 2A; RPMI 1640, pH 7.0; A531 at most 20% of control
Description: as §1

[5] = system: Candida tropicalis KKP 334; experiment: as above; format: cell-based; details: Table 2A; RPMI 1640, pH 7.0
Description: as §1

Human erythrocytes = experiment: Hemotoxicity (hemolytic activity); details: for Hemotoxicity BEH50: 37° C., 30 minutes, concentration causing 50% hemolysis, maximum concentration 300 μg/ml
Description: The hemotoxicity determination were carried out by the serial dilutions method, according to the procedure described earlier (Ślisz, M., et al., E., J Antibiot 57: 669-678 (2004)). Human erythrocytes were suspensed in the solution of saline to obtain a cell density of suspension 2×10^7/ml. Suitable amounts of diluted solutions of compounds were added to the cell suspension in tubes and were incubated at 37° C. for 30 minutes and then centrifuged (1700×g, 10 min, 4° C.). The concentration of hemoglobin in supernatant after centrifugation of erythrocytes suspension were determined by measuring the absorbance at wavelength λ=540 nm (A540). The maximum level of hemolysis was obtained after incubation of cells suspension in the presence of 0.1% Tritone X-100 (control sample). […] From these graphs, the EH50 values were read which are the interpolated concentrations of compound, for which the A540 value is exactly 50% of the A540 value measured for the control sample.

LLC-PK1 = experiment: Cytotoxic activity against mammalian cells in tissue culture (MTT); format: cell-based, pig
Description: (§2) For examinations were used selected cell lines: CCRF-CEM—human acute lymphoblastic leukemia; HepG2—human malignant hepatoma; LLC-PK1—epithelial cell of pig kidney; All lines were from ATCC collection.
(§3) The study are conducted using described below methods of culturing and determination of cytotoxic activity.
(§4) CCRF-CEM cells were cultured in medium RPMI 1640+10% fetal bovine serum (FBS), LLC-PK1 cells in medium Medium 199+3% FBS, HepG2 cells in medium MEM+10% FBS. All media contained 100 μg/ml of penicillin G and streptomycin. 24-wells microplates containing appropriate medium were inoculated with the cells in amount of 1.2×10^4 cells/well and allowed to stand overnight. Next, tested compounds as solution in dimethylsulfoxide (DMSO) were added in volume of 10 μl (serial 2× dilutions). To control well 10 μl of DMSO was added. Microplates with cell suspensions were incubated for 120 h at temperature 37° C. at atmosphere of 95%/5% CO2. After incubation, to all wells 200 μl of solution of 3-(4,5-dimethylthiazole-2-yl)-2,5-diphenylotetrazole bromide (MTT) in PBS (4 mg/ml) was added and plates were further incubated for 4 h at 37° C. Next, to dissolve crystals of formazane 1 ml of DMSO was added and absorption of solutions was measured at the wavelength λ=540 nm (A540), using a microplates reader (Victor^3, Perkin-Wallac). […] From these graphs IC50 values were read, that is concentration of tested compound in the presence at which A540 value is half of A540 value measured in the control sample.

CCRF-CEM = experiment: as above; format: cell-based, human
Description: as §2, §3, §4

HepG2 = experiment: as above; format: cell-based, human
Description: as §2, §3, §4

[6] = human erythrocytes, concentration causing 10% of hemolysis

C[C@@H]1[C@H](O)[C@@H](C)/C=C/C=C/CC/C=C/C=C/C=C/C=C/[C@H](O[C@@H]2O[C@H](C)[C@@H](O)[C@H](N(C)C)[C@@H]2O)C[C@@H]2O[C@](O)(C[C@@H](O)C[C@@H](O)[C@H](O)CC[C@@H](O)C[C@@H](O)CC(=O)O[C@H]1C)C[C@H](O)[C@H]2C(=O)O [Compound N23, N,N-dimethylnystatin A1]
Antifungal activity Candida krusei DSM 6128 MIC (Candida krusei DSM 6128): 8 µg/mL | Antifungal activity Candida albicans ATCC 10231 IC50 [1]: 2.47 µg/mL | Antifungal activity Candida albicans ATCC 10231 MIC [1]: 4 µg/mL | Antifungal activity Candida glabrata DSM 11226 MIC [2]: 8 µg/mL | Antifungal activity Candida lusitaniae DSM 70102 MIC [3]: 2 µg/mL | Antifungal activity Saccharomyces cerevisiae ATCC 9763 MIC [4]: 4 µg/mL | Antifungal activity Candida tropicalis KKP 334 MIC [5]: 4 µg/mL | EH10 (Human erythrocytes): 214.20 µg/mL

N-[3-(piperidin-1-yl)propionyl]nystatin A1 [Compound N44]
Cytotoxicity IC50 LLC-PK1 (LLC-PK1; LLC-PK1, 120 h, MTT): >100 µg/mL | Antifungal activity Candida krusei DSM 6128 MIC (Candida krusei DSM 6128): 8 µg/mL | Antifungal activity Candida albicans ATCC 10231 IC50 [1]: 2.95 µg/mL | Antifungal activity Candida albicans ATCC 10231 MIC [1]: 4 µg/mL | Antifungal activity Candida glabrata DSM 11226 MIC [2]: 8 µg/mL | Antifungal activity Saccharomyces cerevisiae ATCC 9763 MIC [4]: 4 µg/mL | Antifungal activity Candida tropicalis KKP 334 MIC [5]: 4 µg/mL | % of hemolysis at the concentration 60 μg ml^−1 (Human erythrocytes): 0.95% | EH10 (Human erythrocytes; [6]): 209.39 µg/mL | Cytotoxicity IC50 CCRF-CEM (CCRF-CEM; CCRF-CEM, 120 h, MTT): >100 µg/mL | Cytotoxicity IC50 HepG2 (HepG2; HepG2, 120 h, MTT): >100 µg/mL

CC1OC(O[C@H]2/C=C/C=C/C=C/C=C/CC/C=C/C=C/[C@H](C)[C@@H](O)[C@@H](C)[C@H](C)OC(=O)C[C@H](O)C[C@H](O)C[C@H](O)CC[C@@H](O)[C@H](O)CC3(O)C[C@H](O)[C@@H](C(=O)O)[C@H](C2)O3)C(O)C(NC(=O)[C@@H](N)Cc2ccccc2)C1O (stereo partly drawn) [Compound N34, N-L-phenylalanylnystatin A1]
Antifungal activity Candida krusei DSM 6128 MIC (Candida krusei DSM 6128): 8 µg/mL | Antifungal activity Candida albicans ATCC 10231 IC50 [1]: 6.01 µg/mL | Antifungal activity Candida albicans ATCC 10231 MIC [1]: 8 µg/mL | Antifungal activity Candida glabrata DSM 11226 MIC [2]: 8 µg/mL | Antifungal activity Saccharomyces cerevisiae ATCC 9763 MIC [4]: 4 µg/mL | Antifungal activity Candida tropicalis KKP 334 MIC [5]: 8 µg/mL | Hemotoxicity BEH50 (Human erythrocytes; human erythrocytes): >300 µg/mL | % of hemolysis at the concentration 60 μg ml^−1 (Human erythrocytes; human erythrocytes, 60 μg ml^−1): 0.02% | Cytotoxicity IC50 CCRF-CEM (CCRF-CEM; CCRF-CEM, 120 h, MTT): >100 µg/mL | Cytotoxicity IC50 HepG2 (HepG2; HepG2, 120 h, MTT): >100 µg/mL

C[C@@H]1[C@H](O)[C@@H](C)/C=C/C=C/CC/C=C/C=C/C=C/C=C/[C@H](O[C@@H]2O[C@H](C)[C@@H](O)[C@H](NC(=S)NCCN3CCCC3)[C@@H]2O)C[C@@H]2O[C@](O)(C[C@@H](O)C[C@@H](O)[C@H](O)CC[C@@H](O)C[C@@H](O)CC(=O)O[C@H]1C)C[C@H](O)[C@H]2C(=O)O [Compound N16, N-{3-[2-(pyrrolidin-1-yl)ethyl]thioureidyl}nystatin A1]
Antifungal activity Candida krusei DSM 6128 MIC (Candida krusei DSM 6128): 8 µg/mL | Antifungal activity Candida albicans ATCC 10231 IC50 [1]: 3.04 µg/mL | Antifungal activity Candida albicans ATCC 10231 MIC [1]: 4 µg/mL | Antifungal activity Candida glabrata DSM 11226 MIC [2]: 8 µg/mL | Antifungal activity Candida lusitaniae DSM 70102 MIC [3]: 4 µg/mL | Antifungal activity Saccharomyces cerevisiae ATCC 9763 MIC [4]: 4 µg/mL | Antifungal activity Candida tropicalis KKP 334 MIC [5]: 4 µg/mL

CC1OC(O[C@H]2/C=C/C=C/C=C/C=C/CC/C=C/C=C/[C@H](C)[C@@H](O)[C@@H](C)[C@H](C)OC(=O)C[C@H](O)C[C@H](O)C[C@H](O)CC[C@@H](O)[C@H](O)CC3(O)C[C@H](O)[C@@H](C(=O)O)[C@H](C2)O3)C(O)C(NC(=O)[C@H](N)Cc2cccc3ccccc23)C1O (some centres unmarked) [Compound N39]
Cytotoxicity IC50 LLC-PK1 (LLC-PK1): >100 µg/mL | Antifungal activity Candida krusei DSM 6128 MIC (Candida krusei DSM 6128): 16 µg/mL | Antifungal activity Candida albicans ATCC 10231 IC50 [1]: 6.05 µg/mL | Antifungal activity Candida albicans ATCC 10231 MIC [1]: 8 µg/mL | Antifungal activity Candida glabrata DSM 11226 MIC [2]: 16 µg/mL | Antifungal activity Saccharomyces cerevisiae ATCC 9763 MIC [4]: 8 µg/mL | Antifungal activity Candida tropicalis KKP 334 MIC [5]: 8 µg/mL | Cytotoxicity IC50 CCRF-CEM (CCRF-CEM): >100 µg/mL | Cytotoxicity IC50 HepG2 (HepG2): >100 µg/mL

CC1OC(O[C@H]2/C=C/C=C/C=C/C=C/CC/C=C/C=C/[C@H](C)[C@@H](O)[C@@H](C)[C@H](C)OC(=O)C[C@H](O)C[C@H](O)C[C@H](O)CC[C@@H](O)[C@H](O)CC3(O)C[C@H](O)[C@@H](C(=O)O)[C@H](C2)O3)C(O)C(NC2CC(=O)N(CCN3CCN(C)CC3)C2=O)C1O (some centres unmarked) [Compound N9, N—[N′-2-(4-methylpiperazin-1-yl)ethylsuccinimidyl]nystatin A1]
Antifungal activity Candida krusei DSM 6128 MIC (Candida krusei DSM 6128): 16 µg/mL | Antifungal activity Candida albicans ATCC 10231 IC50 [1]: 5.62 µg/mL | Antifungal activity Candida albicans ATCC 10231 MIC [1]: 8 µg/mL | Antifungal activity Candida glabrata DSM 11226 MIC [2]: 16 µg/mL | Antifungal activity Candida lusitaniae DSM 70102 MIC [3]: 4 µg/mL | Antifungal activity Saccharomyces cerevisiae ATCC 9763 MIC [4]: 8 µg/mL | Antifungal activity Candida tropicalis KKP 334 MIC [5]: 8 µg/mL

CC1OC(O[C@H]2/C=C/C=C/C=C/C=C/CC/C=C/C=C/[C@H](C)[C@@H](O)[C@@H](C)[C@H](C)OC(=O)C[C@H](O)C[C@H](O)C[C@H](O)CC[C@@H](O)[C@H](O)CC3(O)C[C@H](O)[C@@H](C(=O)O)[C@H](C2)O3)C(O)C(NCc2ccccc2)C1O (some centres unmarked) [Compound N21, N-benzylnystatin A1]
Cytotoxicity IC50 LLC-PK1 (LLC-PK1; LLC-PK1, 120 h, MTT): >100 µg/mL | Antifungal activity Candida krusei DSM 6128 MIC (Candida krusei DSM 6128): 4 µg/mL | Antifungal activity Candida albicans ATCC 10231 IC50 [1]: 2.32 µg/mL | Antifungal activity Candida albicans ATCC 10231 MIC [1]: 4 µg/mL | Antifungal activity Candida glabrata DSM 11226 MIC [2]: 4 µg/mL | Antifungal activity Saccharomyces cerevisiae ATCC 9763 MIC [4]: 2 µg/mL | Antifungal activity Candida tropicalis KKP 334 MIC [5]: 4 µg/mL | Hemotoxicity BEH50 (Human erythrocytes; human erythrocytes): 188.56 µg/mL | EH10 (Human erythrocytes; [6]): 91.60 µg/mL | Cytotoxicity IC50 CCRF-CEM (CCRF-CEM; CCRF-CEM, 120 h, MTT): 91.9 ± 4.35 µg/mL | Cytotoxicity IC50 HepG2 (HepG2; HepG2, 120 h, MTT): 68.3 ± 8.06 µg/mL

CC1OC(O[C@H]2/C=C/C=C/C=C/C=C/CC/C=C/C=C/[C@H](C)[C@@H](O)[C@@H](C)[C@H](C)OC(=O)C[C@H](O)C[C@H](O)C[C@H](O)CC[C@@H](O)[C@H](O)CC3(O)C[C@H](O)[C@@H](C(=O)O)[C@H](C2)O3)C(O)C(NC2CC(=O)N(CCN3CCCCC3)C2=O)C1O (some centres unmarked) [Compound N8, N—[N′-2-(piperidin-1-yl)ethylsuccinimidyl]nystatin A1]
Antifungal activity Candida krusei DSM 6128 MIC (Candida krusei DSM 6128): 4 µg/mL | Antifungal activity Candida albicans ATCC 10231 IC50 [1]: 1.54 µg/mL | Antifungal activity Candida albicans ATCC 10231 MIC [1]: 2 µg/mL | Antifungal activity Candida glabrata DSM 11226 MIC [2]: 4 µg/mL | Antifungal activity Candida lusitaniae DSM 70102 MIC [3]: 2 µg/mL | Antifungal activity Saccharomyces cerevisiae ATCC 9763 MIC [4]: 2 µg/mL | Antifungal activity Candida tropicalis KKP 334 MIC [5]: 2 µg/mL | EH10 (Human erythrocytes; [6]): 150.73 µg/mL
